Source: the supplement of paper PMC10307832

Experiments:
Experiment in all cases: relative viability (nuclei count vs DMSO), 5 days (fraction); higher = more cells survive
Vemurafenib = compound: CCCS(=O)(=O)Nc1ccc(F)c(C(=O)c2c[nH]c3ncc(-c4ccc(Cl)cc4)cc23)c1F [Vemurafenib]
Method in brief: (§1)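 Only plates meeting two conditions passed: control CV below 25% and at least one doubling. Lung cancer cell lines, kept overnight at 37 °C in 1536-well plates, were pinned with five library-drug doses (not always all listed) √10 apart on vehicle-anchored plates and grown 5 days without medium change. A one-step fix, permeabilisation and Hoechst stain preceded 4× imaging and MetaXpress nuclear counting. Viability equals treated-well nuclei divided by vehicle-well nuclei, as the median over plates.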

OSI-027 = compound: COc1cccc2cc(-c3nc([C@H]4CC[C@H](C(=O)O)CC4)n4ncnc(N)c34)[nH]c12 [OSI-027]
Method in brief: as §1

Alpelisib = compound: Cc1nc(NC(=O)N2CCC[C@H]2C(N)=O)sc1-c1ccnc(C(C)(C)C(F)(F)F)c1 [Alpelisib]
Method in brief: as §1

Vemurafenib + Bortezomib = compound: CCCS(=O)(=O)Nc1ccc(F)c(C(=O)c2c[nH]c3ncc(-c4ccc(Cl)cc4)cc23)c1F [Vemurafenib] + CC(C)C[C@H](NC(=O)[C@H](Cc1ccccc1)NC(=O)c1cnccn1)B(O)O [Bortezomib] (partner 0.002 µM)
Method in brief: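 For relative viability, nuclei counts in treated wells were divided by those in vehicle wells. Lung cancer cell lines had been pin-tool dosed in 1536-well plates the day after seeding and cultured for 5 days, then fixed and stained in one step (final 0.05% Triton X-100, 1% formaldehyde, 1 ug/ml Hoechst) and imaged at 4×. Doses were one drug alone or a fixed anchor-drug dose plus five library-drug doses (not always all listed) in √10 steps, and values are duplicate-plate medians.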

Work on LCLC-97TM1 yielded a relative viability (Vemurafenib; 0.03162 µM) of 0.989, a relative viability (Vemurafenib; 0.1 µM) of 1.05 and a relative viability (Vemurafenib; 0.3162 µM) of 1.02. The relative viability (Vemurafenib; 1 µM) was 0.912, the relative viability (OSI-027; 0.01 µM) was 0.87 and the relative viability (OSI-027; 0.03162 µM) was 0.869. For the same cell line, the relative viability (OSI-027; 0.1 µM) was 0.888, the relative viability (OSI-027; 0.3162 µM) was 0.594 and the relative viability (OSI-027; 0.5 µM, anchor plate) was 0.536. For the same cell line, the relative viability (OSI-027; 1 µM) was 0.375, the relative viability (Alpelisib; 0.04 µM) was 0.873 and the relative viability (Alpelisib; 0.1265 µM) was 0.845. For the same cell line, the relative viability (Alpelisib; 0.4 µM) was 1.01, the relative viability (Alpelisib; 1.265 µM) was 0.796 and the relative viability (Alpelisib; 2 µM, anchor plate) was 0.257. The relative viability (Alpelisib; 4 µM) was 0.521, the relative viability (Vemurafenib + Bortezomib; first compound 0.03162 µM) was 0.495 and the relative viability (Vemurafenib + Bortezomib; first compound 0.1 µM) was 0.587. The relative viability (Vemurafenib + Bortezomib; first compound 0.3162 µM) was 0.528 and the relative viability (Vemurafenib + Bortezomib; first compound 1 µM) was 0.742.
LCLC-103H was tested, and the relative viability (Vemurafenib; 0.03162 µM) was 0.958, the relative viability (Vemurafenib; 0.1 µM) was 0.952 and the relative viability (Vemurafenib; 0.3162 µM) was 0.91. It also gave a relative viability (Vemurafenib; 1 µM) of 0.883, a relative viability (OSI-027; 0.01 µM) of 1.03 and a relative viability (OSI-027; 0.03162 µM) of 1.02. It also gave a relative viability (OSI-027; 0.1 µM) of 0.903, a relative viability (OSI-027; 0.3162 µM) of 0.871 and a relative viability (OSI-027; 0.5 µM, anchor plate) of 0.473. For the same cell line, the relative viability (OSI-027; 1 µM) was 0.749, the relative viability (Alpelisib; 0.04 µM) was 0.972 and the relative viability (Alpelisib; 0.1265 µM) was 0.956. The relative viability (Alpelisib; 0.4 µM) was 0.959, the relative viability (Alpelisib; 1.265 µM) was 0.779 and the relative viability (Alpelisib; 2 µM, anchor plate) was 0.969. It also gave a relative viability (Alpelisib; 4 µM) of 0.749, a relative viability (Vemurafenib + Bortezomib; first compound 0.03162 µM) of 0.975 and a relative viability (Vemurafenib + Bortezomib; first compound 0.1 µM) of 1.04. For the same cell line, the relative viability (Vemurafenib + Bortezomib; first compound 0.3162 µM) was 0.843 and the relative viability (Vemurafenib + Bortezomib; first compound 1 µM) was 1.09.
LOU-NH91 was tested, and the relative viability (Vemurafenib; 0.03162 µM) was 0.954, the relative viability (Vemurafenib; 0.1 µM) was 0.724 and the relative viability (Vemurafenib; 1 µM) was 1.07. The relative viability (OSI-027; 0.01 µM) was 0.903, the relative viability (OSI-027; 0.03162 µM) was 0.967 and the relative viability (OSI-027; 0.1 µM) was 0.786. It also gave a relative viability (OSI-027; 0.3162 µM) of 0.776, a relative viability (OSI-027; 0.5 µM, anchor plate) of 0.72 and a relative viability (OSI-027; 1 µM) of 0.591. It also gave a relative viability (Alpelisib; 0.04 µM) of 0.961, a relative viability (Alpelisib; 0.1265 µM) of 0.806 and a relative viability (Alpelisib; 0.4 µM) of 0.859. It also gave a relative viability (Alpelisib; 1.265 µM) of 0.753, a relative viability (Alpelisib; 2 µM, anchor plate) of 0.732 and a relative viability (Alpelisib; 4 µM) of 0.604. It also gave a relative viability (Vemurafenib + Bortezomib; first compound 0.03162 µM) of 0.478, a relative viability (Vemurafenib + Bortezomib; first compound 0.1 µM) of 0.467 and a relative viability (Vemurafenib + Bortezomib; first compound 1 µM) of 0.534.
Cell Line LU99A has a relative viability (Vemurafenib; 0.03162 µM) of 0.93, a relative viability (Vemurafenib; 0.1 µM) of 0.946 and a relative viability (Vemurafenib; 0.3162 µM) of 0.74. For the same cell line, the relative viability (Vemurafenib; 1 µM) was 0.895, the relative viability (OSI-027; 0.01 µM) was 0.953 and the relative viability (OSI-027; 0.03162 µM) was 0.894. For the same cell line, the relative viability (OSI-027; 0.1 µM) was 0.831, the relative viability (OSI-027; 0.3162 µM) was 0.451 and the relative viability (OSI-027; 0.5 µM, anchor plate) was 0.307. The relative viability (OSI-027; 1 µM) was 0.27, the relative viability (Alpelisib; 0.04 µM) was 0.899 and the relative viability (Alpelisib; 0.1265 µM) was 0.96. The relative viability (Alpelisib; 0.4 µM) was 1.04, the relative viability (Alpelisib; 1.265 µM) was 0.773 and the relative viability (Alpelisib; 2 µM, anchor plate) was 0.511. The relative viability (Alpelisib; 4 µM) was 0.696, the relative viability (Vemurafenib + Bortezomib; first compound 0.03162 µM) was 1.02 and the relative viability (Vemurafenib + Bortezomib; first compound 0.1 µM) was 1.07. It also gave a relative viability (Vemurafenib + Bortezomib; first compound 0.3162 µM) of 1.05 and a relative viability (Vemurafenib + Bortezomib; first compound 1 µM) of 1.04.
LXF-289 showed a relative viability (Vemurafenib; 0.03162 µM) of 0.967, a relative viability (Vemurafenib; 0.1 µM) of 0.95 and a relative viability (Vemurafenib; 0.3162 µM) of 1. For the same cell line, the relative viability (Vemurafenib; 1 µM) was 1.06, the relative viability (OSI-027; 0.01 µM) was 1.02 and the relative viability (OSI-027; 0.03162 µM) was 0.971. It also gave a relative viability (OSI-027; 0.1 µM) of 1.04, a relative viability (OSI-027; 0.3162 µM) of 0.981 and a relative viability (OSI-027; 0.5 µM, anchor plate) of 0.817. The relative viability (OSI-027; 1 µM) was 0.881, the relative viability (Alpelisib; 0.04 µM) was 0.988 and the relative viability (Alpelisib; 0.1265 µM) was 1.11. For the same cell line, the relative viability (Alpelisib; 0.4 µM) was 1.05, the relative viability (Alpelisib; 1.265 µM) was 1 and the relative viability (Alpelisib; 2 µM, anchor plate) was 1.06. It also gave a relative viability (Alpelisib; 4 µM) of 0.961, a relative viability (Vemurafenib + Bortezomib; first compound 0.03162 µM) of 1.01 and a relative viability (Vemurafenib + Bortezomib; first compound 0.1 µM) of 0.953. It also gave a relative viability (Vemurafenib + Bortezomib; first compound 0.3162 µM) of 0.966 and a relative viability (Vemurafenib + Bortezomib; first compound 1 µM) of 1.1.
Work on NCI-H23 yielded a relative viability (Vemurafenib; 0.03162 µM) of 0.918, a relative viability (Vemurafenib; 0.1 µM) of 0.967 and a relative viability (Vemurafenib; 0.3162 µM) of 0.838. The relative viability (Vemurafenib; 1 µM) was 0.871, the relative viability (OSI-027; 0.01 µM) was 0.906 and the relative viability (OSI-027; 0.03162 µM) was 0.96. For the same cell line, the relative viability (OSI-027; 0.1 µM) was 0.808, the relative viability (OSI-027; 0.3162 µM) was 0.784 and the relative viability (OSI-027; 0.5 µM, anchor plate) was 0.612. The relative viability (OSI-027; 1 µM) was 0.54, the relative viability (Alpelisib; 0.04 µM) was 0.94 and the relative viability (Alpelisib; 0.1265 µM) was 0.798. The relative viability (Alpelisib; 0.4 µM) was 0.913, the relative viability (Alpelisib; 1.265 µM) was 0.739 and the relative viability (Alpelisib; 2 µM, anchor plate) was 0.78. For the same cell line, the relative viability (Alpelisib; 4 µM) was 0.706, the relative viability (Vemurafenib + Bortezomib; first compound 0.03162 µM) was 1 and the relative viability (Vemurafenib + Bortezomib; first compound 0.1 µM) was 1.01. For the same cell line, the relative viability (Vemurafenib + Bortezomib; first compound 0.3162 µM) was 1.15 and the relative viability (Vemurafenib + Bortezomib; first compound 1 µM) was 1.29.
NCI-H322M showed a relative viability (Vemurafenib; 0.03162 µM) of 0.883, a relative viability (Vemurafenib; 0.3162 µM) of 1.11 and a relative viability (Vemurafenib; 1 µM) of 0.906. The relative viability (OSI-027; 0.01 µM) was 0.922, the relative viability (OSI-027; 0.03162 µM) was 0.887 and the relative viability (OSI-027; 0.1 µM) was 0.843. The relative viability (OSI-027; 0.3162 µM) was 0.72, the relative viability (OSI-027; 0.5 µM, anchor plate) was 0.578 and the relative viability (OSI-027; 1 µM) was 0.527. For the same cell line, the relative viability (Alpelisib; 0.04 µM) was 0.879, the relative viability (Alpelisib; 0.1265 µM) was 0.961 and the relative viability (Alpelisib; 0.4 µM) was 0.918. For the same cell line, the relative viability (Alpelisib; 1.265 µM) was 0.698, the relative viability (Alpelisib; 2 µM, anchor plate) was 0.786 and the relative viability (Alpelisib; 4 µM) was 0.682. For the same cell line, the relative viability (Vemurafenib + Bortezomib; first compound 0.03162 µM) was 1.2, the relative viability (Vemurafenib + Bortezomib; first compound 0.3162 µM) was 1.43 and the relative viability (Vemurafenib + Bortezomib; first compound 1 µM) was 1.2.
Cell Line NCI-H441 has a relative viability (Vemurafenib; 0.03162 µM) of 0.899, a relative viability (Vemurafenib; 0.1 µM) of 0.963 and a relative viability (Vemurafenib; 0.3162 µM) of 0.787. The relative viability (Vemurafenib; 1 µM) was 0.931, the relative viability (OSI-027; 0.01 µM) was 1.19 and the relative viability (OSI-027; 0.03162 µM) was 1.05. For the same cell line, the relative viability (OSI-027; 0.1 µM) was 0.984, the relative viability (OSI-027; 0.3162 µM) was 0.963 and the relative viability (OSI-027; 0.5 µM, anchor plate) was 0.636. It also gave a relative viability (OSI-027; 1 µM) of 0.474, a relative viability (Alpelisib; 0.04 µM) of 1.1 and a relative viability (Alpelisib; 0.1265 µM) of 0.95. The relative viability (Alpelisib; 0.4 µM) was 1.01, the relative viability (Alpelisib; 1.265 µM) was 0.605 and the relative viability (Alpelisib; 2 µM, anchor plate) was 0.766. The relative viability (Alpelisib; 4 µM) was 0.662, the relative viability (Vemurafenib + Bortezomib; first compound 0.03162 µM) was 0.336 and the relative viability (Vemurafenib + Bortezomib; first compound 0.1 µM) was 0.482. For the same cell line, the relative viability (Vemurafenib + Bortezomib; first compound 1 µM) was 0.412.
